The assay concerns the target Lysine-specific histone demethylase 1A (Homo sapiens, UniProt O60341). Briefly: In Vitro Enzyme Inhibition Assay - LSD-1.

Usually IC50 stands for the concentration that inhibits the measured activity by half. `CN(C)C1CCN(c2nc(-c3ccc(C#N)c(F)c3)c(C3=CC4C=NN(C)C4C=C3)c(=O)n2C)CC1` (stereo unspecified) [US10548896, Example 72] gave an IC50 of under 100 nM.

(Values after BindingDB's records for patent US10548896 (Celgene Quanticel Research, 2020).)
